Data on six compounds can be found in patent US4447445A (priority 1983, dated 1984).

Each structure is given as a SMILES string. In brackets after ≈: the same amount, converted by molar mass. Several values for one entry are separate records, joined by “and”; a condition that tells them apart may be missing. Equal entries are not always repeated. Entries after “also recorded” stand apart in the source; their conditions may differ.

One experiment deals with isolated diaphragm. As to the kind of experiment: Rat Phrenic Nerve - Hemidiaphragm. The settings on record: for effects on skeletal muscle: preliminary assays. As to the method:
Compound is tested for its ability to inhibit or facilitate the twitch of the isolated diaphragm in response to the electrical stimulation of the phrenic nerve [Bulbring, E., Br. J. Pharmac. Chemother. 1, 38 (1946)].

Experiment [1] deals with spontaneous beating isolated guinea pig auricles. Kind of experiment: Guinea Pig Auricles. The conditions noted are these: for effects on cardiac muscle: preliminary assays. As to the method:
Test compound is administered to the spontaneous beating isolated guinea pig auricles and observed for its ability to alter either the rate or the force of contraction or to antagonize the effects of acetylcholine [modified from J. Physiol. 61, 547 (1926); Heffter's Hanb. Exp. Pharmak. 4, 185 (1937)].

The subject of experiment [2] is eggs (from Lytechinus pictus). Kind of experiment: Fertilized Sea Urchin Egg Inhibition of Cleavage Assay. It is filed as cell-based. The conditions noted are these: for inhibition of cell division: preliminary assays. The protocol:
Test compound is added to a slurry of eggs (from Lytechinus pictus) within five minutes following fertilization and incubated until the completion of first division in control slurry, approximately 90 minutes. Inhibition is measured as the percent of undivided eggs in the slurry at the end of incubation [Hinegardner, R., In The Sea Urchin Embryo, ed. C. Czihar (Springer-Verlag, Berlin, 1974)].

The test system of experiment [3] is PMA induced inflammation of mouse ears. Kind of experiment: PMA Mouse Ear Anti-Inflammatory Assay. The format is in vivo. The settings on record: for % Inhibition of Edema Alone: Manoalide 0.04 mg/ear, Hydrocortisone 0.009 mg/ear, Indomethacin 0.09 mg/ear. The protocol:
(§1) Test compound and phorbol myristate acetate (PMA) or arachidonic acid (ARA) are topically applied simultaneously to the left ears of mice. Three hours 20 minutes (or one hour for ARA) after application, the mouse is sacrificed, left and right ears removed and standard sized bores taken. Edema (inflammation) is measured as the difference in weight between left and right ears [Van Arman, C. G., Clin. Pharmacol. Ther. 16, 900-904 (1974)].

Experiment [4] has as its system ARA induced inflammation of mouse ears. As to the kind of experiment: Arachidonic Acid Mouse Ear Assay. The conditions noted are these: in vivo. The protocol:
as §1

The test system of experiment [5] is oxazolone induced inflammation of mouse ears. As to the kind of experiment: Oxazolone-Induced Sensitization inflammation. The format is in vivo. The conditions noted are these: for EAR WEIGHT (MGS): with oxazolone. The protocol: Mice are sensitized by the application of oxazolone to the abdominal area. One week later, test compound and oxazolone are topically applied to the ears of these mice. Six hours after application, the mice are sacrificed, the ears removed and standard sized bores taken and weighed. Edema (inflammation) is measured as the difference in weight between control and treated ears. Without previous sensitization exposure, oxazolone has no inflammatory effect on mouse ears.

Experiment [6] relates to mice. Kind of experiment: Acute Toxicity (with analgesia screening). The settings on record: initial screening. It is filed as in vivo, mouse. As to the method: Test compound is injected subcutaneously into mice which are observed for three days for both lethality and any unusual behavior or appearance. This assay may be performed in conjunction with analgesia assays.

The target of another experiment is β-bungarotoxin (Bungarus multicinctus, UniProt P00617).
β-bungarotoxin, sequence (P00617 whole entry, looked up): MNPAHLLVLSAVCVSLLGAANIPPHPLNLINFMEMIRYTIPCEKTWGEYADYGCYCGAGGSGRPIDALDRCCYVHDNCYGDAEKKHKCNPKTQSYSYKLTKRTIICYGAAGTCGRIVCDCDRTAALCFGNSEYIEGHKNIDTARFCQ
The next experiment relates to mouse ears. As to the kind of experiment: Histology of mouse ears from the anti-inflammatory assay. The settings on record: in vivo. The source says: Mouse ears from the anti-inflammatory assay are fixed in Karnofsky's fixative and osmium tetroxide and then embedded in araldite epoxy resin for sectioning for light and electron microscopy.
Experiment [7] relates to PMA induced inflammation of mouse ears. As to the kind of experiment: PMA Mouse Ear Anti-Inflammatory Assay. The settings on record: in vivo.
The test system of experiment [8] is tumors formed on mouse ears. Kind of experiment: Tumor Promotion (DMBA/PMA mouse ear). It is filed as in vivo. The settings on record: PMA as promoter with initiator DMBA. The source says: An initiating agent, 7,12-dimethylbenzanthracene (DMBA), is applied topically to the ears of mice. Beginning one month later, a tumor promoting agent, phorbol myristate acetate (PMA), and the test compound are applied simultaneously to the ears twice per week for four weeks, then once per week for two weeks. Ears are observed for formation of tumors at the times of application and one week following completion of applications.

Experiment [9] concerns isolated section of small intestine. Kind of experiment: Guinea Pig Ileum. The settings on record: initial screening.
Experiment [10] relates to electrically driven section of isolated small intestine. As to the kind of experiment: Electrically Stimulated Guinea Pig Ileum.
Experiment [11] has as its target phospholipase A2 from bee venom (Apis mellifera, UniProt P00630). The format is biochemical.
Experiment [12] has as its system mice. As to the kind of experiment: Analgesia - Haffner Technique (tail clip). The format is in vivo, mouse. The conditions noted are these: high doses. As to the method: Analgesia is measured as the lack of response to a pinch clamp applied to the tail of a mouse 15 to 30 minutes following subcutaneous injection of the test compound [Bianchi, G. and G. Franeschini, Brit. J. Pharmac. 9, 280 (1954)].

The target of another experiment is T1, acetylcholinesterase (Rattus norvegicus, UniProt P37136).
T1 construct: rat brain extract (source of acetylcholinesterase); from tissue; host or cells: rat brain extract
T1 sequence (P37136 32-614): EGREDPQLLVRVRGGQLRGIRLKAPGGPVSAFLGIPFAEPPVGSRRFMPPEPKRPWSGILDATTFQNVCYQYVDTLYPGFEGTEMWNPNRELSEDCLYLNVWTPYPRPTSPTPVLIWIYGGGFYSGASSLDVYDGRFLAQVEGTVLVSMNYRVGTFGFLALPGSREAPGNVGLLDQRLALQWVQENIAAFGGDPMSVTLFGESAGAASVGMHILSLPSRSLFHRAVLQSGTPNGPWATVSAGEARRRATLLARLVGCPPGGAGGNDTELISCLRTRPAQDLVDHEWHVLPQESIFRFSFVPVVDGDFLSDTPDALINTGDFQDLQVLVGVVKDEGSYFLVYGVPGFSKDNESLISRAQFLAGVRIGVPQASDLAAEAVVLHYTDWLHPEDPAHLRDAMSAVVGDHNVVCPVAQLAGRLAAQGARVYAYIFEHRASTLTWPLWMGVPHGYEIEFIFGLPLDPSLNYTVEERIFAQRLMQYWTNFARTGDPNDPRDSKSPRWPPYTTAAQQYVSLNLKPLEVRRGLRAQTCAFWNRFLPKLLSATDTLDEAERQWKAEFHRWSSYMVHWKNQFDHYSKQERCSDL
Kind of experiment: Acetylcholinesterase Assay. The format is biochemical. The protocol:
Test compound is incubated with rat brain extract (source of acetylcholinesterase), acetylthiocholine and dithiobis (2-nitrobenzoic acid). Inhibition of acetylcholinesterase activity is measured spectrophotometrically.

A further experiment relates to isolated rat uterus. Kind of experiment: Rat Uterus (Prostaglandin Assay). The settings on record: against PGE2, PGE1 and PGF2.
Setting [13] is: mouse, in vivo, listed as manoalide.

phospholipase A2 from bee venom, sequence (P00630 34-167 limits assumed): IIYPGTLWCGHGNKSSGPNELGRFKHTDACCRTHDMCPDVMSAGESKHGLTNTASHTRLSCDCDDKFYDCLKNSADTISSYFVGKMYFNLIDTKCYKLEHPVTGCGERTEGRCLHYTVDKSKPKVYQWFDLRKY

As for `CC(=CCCC(C=O)=CC=CC1=CC(=O)OC1O)CCC1=C(C)CCCC1(C)C` (single isomer, unassigned) [dehydro-seco-manoalide], the “effects on skeletal muscle” value in the experiment with isolated diaphragm is reported as “no significant activity”. For the same compound, in experiment [1], the “effects on cardiac muscle” value is given as “no significant activity”. For the same compound, the “inhibition of cell division” value in [2] is given as “no significant activity”. In [3] (mouse, in vivo), the “PMA Mouse Ear anti-inflammatory activity (remark)” value is “anti-inflammatoryactivity” and the “anti-inflammatory potency relative to comparators” value is “nearly equivalent in potency to that of manoalide”.
Take `C[C@]12CCC(=O)C=C1CC[C@@H]1[C@@H]2[C@@H](O)C[C@@]2(C)[C@H]1CC[C@]2(O)C(=O)CO` [Hydrocortisone, hydrocortisone, reference compound]: in experiment [4], the “effect on ARA induced ear inflammation” value was “Neither manoalide nor hydrocortisone affected the ARA induced inflammation”. The results for the “EAR WEIGHT (MGS)” value in [5] (dose 50 μg/ear) and in [5] (dose 100 μg/ear) were 9.7 ± 1.2 MGS and 9.2 ± 0.4 MGS, respectively. Further, the “% Inhibition of Edema Alone” value in experiment [3] is 16.59 ± 7.00%.
As to `COc1ccc2c(c1)c(CC(=O)O)c(C)n2C(=O)c1ccc(Cl)cc1` [Indomethacin, indomethacin, reference compound], the “effect on ARA induced ear inflammation” value in experiment [4] is reported as “effectively blocked”. Besides, the figures for the “EAR WEIGHT (MGS)” value in [5] (dose 50 μg/ear) and in [5] (dose 100 μg/ear) were 16.6 ± 5.7 MGS and 11.1 ± 1.2 MGS, respectively. Moreover, the “% Inhibition of Edema Alone” value in [3] was determined as 31.42 ± 12.72%.
Take `CC1=C(CC/C(C)=C/CCC2=CCC(C3=CC(=O)OC3O)OC2O)C(C)(C)CCC1` (centres unmarked) [Manoalide]: the “Mouse Toxicity and Analgesia (remark)” value with mice [6] is on record as “Active”. Further, in the experiment on isolated diaphragm, the “contracture in the rat hemidiaphragm preparation” value is on record as “modest contracture” and the “effect on the directly stimulated twitch” value is given as “mildly inhibiting the directly stimulated twitch”. Besides, in the experiment on isolated diaphragm (initial screening), the “Rat Phrenic Nerve - Hemidiaphragm (remark)” value is recorded as “Active”. Also, at β-bungarotoxin, the “inactivation of β-Bungarotoxin neurotoxic action” value is given as “inactivated the irreversible neurotoxic action of β-bungarotoxin; also recorded: prevents the paralytic action of β-bungarotoxin”. For the same compound, the “effect on ARA induced ear inflammation” value in experiment [4] is “Inactive”. For the same compound, the “effect on ARA induced ear inflammation” value in experiment [4] (listed as manoalide) was “Neither manoalide nor hydrocortisone affected the ARA induced inflammation”. For the same compound, the “Histology of PMA treated ears” value in the experiment with mouse ears is reported as “Decreased lymphocyte”. Also, the “Histology of PMA treated ears” value with mouse ears (listed as manoalide) was “qualitatively produced similar effects to both hydrocortisone and indomethacin”. Moreover, in [1], the “Acetylcholine Antagonism in Guinea Pig Auricles” value is on record as “Inactive”. Besides, the “Guinea Pig Auricles (remark)” value in [1] (initial screening) is listed as “Active”. Besides, the “PMA - Mouse Ear Time Course of Action: time of optimum activity relative to PMA application” value in experiment [7] is under 5 min. The “PMA - Mouse Ear Time Course of Action: time of optimum activity relative to PMA application” value in experiment [7] (listed as manoalide) is “five”. Moreover, the “EAR WEIGHT (MGS)” value in [5] (dose 50 μg/ear) turned out to be 17.5 ± 3.7 MGS. Further, the “EAR WEIGHT (MGS)” value in [5] (dose 100 μg/ear) is given as 13.1 ± 1.4 MGS. The “effect on oxazolone induced inflammation” value in experiment [5] (setting [13]) is on record as “blocks the oxazolone induced inflammation”. In addition, in experiment [8], the “incidence of tumors formed on mouse ears” value is recorded as “significantly decreases the incidence of tumors”. The “Guinea Pig Ileum (remark)” value in experiment [9] is on record as “Active”. In addition, the IC50 in [2] (Lytechinus pictus, 1.5 h, read-out: Fertilized Sea Urchin Egg ED50) worked out at 1 µg/mL (≈ 2.4 µM). Further, the “Fertilized Sea Urchin Egg Inhibition of Cleavage (remark)” value in experiment [2] (initial screening) is on record as “Active”. For the same compound, in experiment [10], the “Electrically Stimulated Guinea Pig Ileum (remark)” value is listed as “Inactive”, the “antagonism of the morphine block” value was “nor did it antagonize the morphine block” and the “block of electrically induced contractions” value is “neither blocked electrically induced contractions”. In experiment [11], the “Inhibition of purified phosplolipase A2 (remark)” value is on record as “Active”, the “effect on enzyme activity (hydrolysis of phosphatidylcholine)” value was “concentration dependent decrease in enzyme activity; also recorded: potent inhibitor of the hydrolysis of phosphatidylcholine” and the “type of inhibition of phospholipase A2” value is recorded as “non-competitive inhibitor”. The “Analgesia (Haffner Tail-Clip), mechanically induced pain” value in the experiment on mice [12] is reported as “Inactive”. Further, the “Analgesia (Haffner Tail-Clip), mechanically induced pain” value in the experiment with mice [12] (listed as manoalide) is on record as “did not significantly affect mechanically induced pain”. Further, the “Acetylcholinesterase (remark)” value at acetylcholinesterase was “Inactive”. The “Rat Uterus (Prostaglandin Assay) activity” value with isolated rat uterus is on record as “Inactive”. The “Rat Uterus (Prostaglandin Assay) activity” value with isolated rat uterus (listed as manoalide) is “inactive against these agents”. In [3], the “% Inhibition of Edema Alone” value amounted to 28.24 ± 6.58%. In addition, in experiment [3] (mouse, in vivo), the “PMA - Mouse Ear Competition for binding” value is given as “Does not compete”; the “PMA - Mouse Ear Potentiation (with Hydrocortisone and Indomethacin)” value is listed as “Active”; the “PMA Mouse Ear anti-inflammatory activity (remark)” value is listed as “Active; also recorded: blocks this inflammation”; the “anti-inflammatory potency relative to comparators” value is given as “greater than that of indomethacin; also recorded: less potent than hydrocortisone”. The “anti-inflammatory potency relative to comparators” value in [3] (setting [13]) is “more potent than indomethacin and less potent than hydrocortisone”. Further, the “ED50 (PMA induced ear inflammation)” value in [3] (topical, will vary with PMA dose) was about 40 μg/ear. Also, the “reduction of inflammation due to PMA induction” value in experiment [3] (total dose of 10 μg applied to the ear) is listed as “marked reduction of inflammation”.
As for `CCN(CC)CCCC(C)Nc1c2ccc(Cl)cc2nc2ccc(OC)cc12` (centres unmarked) [mepacrine], the “Mean TI50 ± S.E.” value at β-bungarotoxin was 43.50 ± 2.50 and 49.00 ± 4.00 and 46.60 ± 7.54 and 35.66 ± 4.67. In addition, the “effect on enzyme activity (hydrolysis of phosphatidylcholine)” value in experiment [11] is on record as “ineffective”.
For `CC1=C(CC/C(C)=C/CCC(C=O)=CCC(O)C2=CC(=O)OC2O)C(C)(C)CCC1` (centres unmarked) [seco-manoalide], in the experiment on isolated diaphragm, the “effects on skeletal muscle” value is reported as “no significant activity”. For the same compound, the “effects on cardiac muscle” value in experiment [1] was “no significant activity”. For the same compound, in [2], the “inhibition of cell division” value is reported as “no significant activity”. Also, in experiment [3] (mouse, in vivo), the “PMA Mouse Ear anti-inflammatory activity (remark)” value is on record as “anti-inflammatoryactivity” and the “anti-inflammatory potency relative to comparators” value is reported as “nearly equivalent in potency to that of manoalide”.
